Read-outs that look alike come from different tables or passages of the source.
Experiments:
[1] = test system: Pseudomonas sp. strain 4G; type: cell-based
[2] = test system: Stenotrophomonas sp. strain 2L; type: cell-based
[3] = test system: Brevundimonas sp. strain 2N; type: cell-based
[4] = test system: investigated strains of bacteria; type: cell-based
[5] = test system: Arthrobacter sp. strain 1N; type: cell-based
[6] = test system: Stenotrophomonas sp. strain 5L; type: cell-based
[7] = test system: Stenotrophomonas sp. strain 6L; type: cell-based
[8] = test system: model strain Escherichia coli; details: according to Spain, 2003; cited from earlier work
[9] = test system: Achromobacter sp. strain 4P; type: cell-based
[10] = test system: Brevundimonas sp. strain 6N; type: cell-based
[11] = test system: Brevundimonas sp. strain 5N; type: cell-based
[12] = test system: Stenotrophomonas sp. strain 3N; type: cell-based
[13] = test system: Pseudomonas sp. strain 3G; type: cell-based; details: 24 h

Sodium arsenite [As (III)]
MIC threshold values of heavy metals ([1]; 24 h): 5 mM/L | MIC threshold values of heavy metals ([1]; 48 h): 8 mM/L | MIC threshold values of heavy metals [2]: 4(6) mM/L | MIC threshold values of heavy metals [3]: 5(7) mM/L | Susceptibility of the investigated strains to the heavy metal [4]: resistant | MIC threshold values of heavy metals [5]: 5(8) mM/L | MIC threshold values of heavy metals [6]: 5(7) mM/L | MIC threshold values of heavy metals [7]: 5(7) mM/L | MIC [8]: 0.5 mM/L | MIC threshold values of heavy metals [9]: 5(6) mM/L | MIC threshold values of heavy metals [10]: 4(7) mM/L | MIC threshold values of heavy metals [11]: 4(7) mM/L | MIC threshold values of heavy metals [12]: 3(5) mM/L | MIC threshold values of heavy metals [13]: 5 mM/L

Reference: patent US9012200B2, “Composition of bacterial strains, bioremediation mixture and use of this composition for the removal of contaminants from the soil and the method for purifying the soil contaminants” (priority 2012, dated 2015)
